Test results as given in paper PMC4988501, “Pinpointing a Mechanistic Switch Between Ketoreduction and “Ene” Reduction in Short‐Chain Dehydrogenases/Reductases” (Angewandte Chemie (International Ed. in English), 2016).

Key:
Assay type in all cases: binding
[1] = target: T1, MNMR ((−)‐menthone:(+)‐neomenthol reductase) (Mentha x piperita, UniProt Q06ZW2); assay: X-ray crystal structure, crystal soaking; details: crystals soaked with NADP+
T1 construct: recombinant; catalytic Tyr244; construct details only in supplement

[2] = target: T2, IPR (isopiperitenone reductase) (Mentha x piperita, UniProt Q6WAU1); assay: X-ray crystal structure; details: oxidised cofactor scavenged from expression host
T2 construct: recombinant; scavenged NADP+ from host cells; catalytic Glu238; construct details only in supplement

[3] = target: T2, IPR (isopiperitenone reductase); assay: X-ray crystal structure of complex; details: non-substrate, bound in a non-active conformation; with NADP+

T2 sequence (Q6WAU1 whole entry): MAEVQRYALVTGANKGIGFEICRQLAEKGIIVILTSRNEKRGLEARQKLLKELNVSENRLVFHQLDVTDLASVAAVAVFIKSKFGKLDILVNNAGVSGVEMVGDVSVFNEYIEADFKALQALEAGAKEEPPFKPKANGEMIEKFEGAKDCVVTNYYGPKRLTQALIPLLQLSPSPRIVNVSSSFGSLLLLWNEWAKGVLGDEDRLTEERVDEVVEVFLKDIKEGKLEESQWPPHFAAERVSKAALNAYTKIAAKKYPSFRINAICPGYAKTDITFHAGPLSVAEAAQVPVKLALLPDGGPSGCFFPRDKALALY
T1 sequence (Q06ZW2 entry or part of it): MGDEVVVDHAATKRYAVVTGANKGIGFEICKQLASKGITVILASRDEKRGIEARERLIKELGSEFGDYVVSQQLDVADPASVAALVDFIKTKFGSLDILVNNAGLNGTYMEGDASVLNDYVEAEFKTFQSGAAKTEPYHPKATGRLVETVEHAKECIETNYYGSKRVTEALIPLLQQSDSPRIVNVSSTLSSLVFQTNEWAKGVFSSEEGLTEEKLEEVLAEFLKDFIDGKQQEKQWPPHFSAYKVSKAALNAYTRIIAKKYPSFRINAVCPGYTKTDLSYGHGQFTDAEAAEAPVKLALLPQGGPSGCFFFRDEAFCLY

NC(=O)c1ccc[n+]([C@@H]2O[C@H](COP(=O)(O)OP(=O)(O)OC[C@H]3O[C@@H](n4cnc5c(N)ncnc54)[C@H](OP(=O)(O)O)[C@@H]3O)[C@@H](O)[C@H]2O)c1 [NADP+]
X-ray crystal structure, crystal soaking [1]: A coenzyme‐bound MNMR structure was obtained by soaking crystals with NADP^+
X-ray crystal structure [2]: presence of clear density in the F0−Fc map for NADP^+

CC1=C(C=O)C(C)(C)CCC1 [β‐cyclocitral]
X-ray crystal structure of complex [3]: The IPR–β‐cyclocitral co‐crystal structure shows the ligand binds in a non‐active conformation
